Experimental data published in US10001469B2, “Use of GPR83 to identify pruritus-related substances” (University of Miyazaki, priority 2010, dated 2018).
“Also recorded” adds a separate entry of the source. Non-standard residues stand in square brackets, D forms with d. No end group written: not given here.

Legend:
[1] = test system: HK-1-induced scratching behavior; conditions: pre-administration, Non-patent Documents 7 and 8; cited from earlier work
[2] = test system: SP-induced scratching behavior; conditions: pre-administration, Non-patent Documents 7 and 8; cited from earlier work
[3] = test system: pain-related behavior; conditions: administered to a rat or a mouse; Non-patent Document 1; cited from earlier work
[4] = test system: intrathecally catheterized rats; conditions: depending on the concentrations of peptides administered, Non-patent Document 7; cited from earlier work
[5] = test system: thermal hyperalgesia; conditions: intrathecal administration; Non-patent Documents 7, 9, 10, 11; cited from earlier work
[6] = test system: SP-induced scratching behavior; assay: SP-induced scratching behavior after intrathecal pre-administration of peptide or siRNA; type: in vivo, rat
Description: In addition, the number of scratching events induced by SP administration at 5 minutes after saline administration was designated as a control, and was specifically designated as 100%.
In addition, the number of scratching events induced by SP administration at 5 minutes after saline administration was designated as a control and was specifically designated as 100%.
10^−3 M (10 nmol/10 μl) N-terminal regions (nSP and nHK-1) and the following peptides subjected to substitution were administered to intrathecally catheterized rats via catheters.
5 minutes after administration, the number of scratching events induced by administration of 10^−3 M (10 nmol/10 μl) SP was evaluated. In addition, the number of scratching events induced by administration of 10^−3 M SP at 5 minutes after saline administration was designated as a control and was specifically designated as 100%.
10^−3 M (10 nmol/10 μl) DTrp^2-nSP and DTrp^2-nHK-1 were administered to intrathecally catheterized rats via catheters, and then the number of scratching events induced by administration of 10^−3 M (10 nmol/10 μl) SP was evaluated. […] In addition, the number of scratching events induced by SP administration at 5 minutes after saline administration was designated as a control and was specifically designated as 100%.
siRNA was prepared using an HVJ Envelop Vector Kit (ISHIHARA SANGYO KAISHA, LTD) according to the protocols of the kit. 10 μl of an siRNA solution was administered to intrathecally catheterized rats via catheters. With administration of only HVJ-E and administration of mismatch siRNA as controls, time-course changes in scratching events resulting from SP or HK-1 were evaluated.
Next, NK1R siRNA was intrathecally administered and then SP was intrathecally administered on days 4, 7, 10, and 14. […] The number of SP-induced scratching events was gradually recovered after siRNA administration.

[7] = test system: intrathecally catheterized rats; assay: Scratching behavior after intrathecal administration of the peptide alone; type: in vivo, rat; conditions: 10^−3 M (10 nmol/10 μl) intrathecal
Description: 10^−3 M (10 nmol/10 μl) HK-1 and SP, the N-terminal regions (nHK-1 and nSP), and the C-terminal regions (cHK-1 and cSP) were administered to intrathecally catheterized rats via catheters. Ethological changes beginning immediately after administration were evaluated using the number of scratching events during a 5-minute period after each peptide administration as an indicator. Here, the expression “10^−3 M (10 nmol/10 μl) . . . administered” refers to administration of 10 μl (full dose) of a solution containing 10 nmol of a peptide (e.g., nHK-1) (that is, a 10^−3 M solution). The same applies to the following similar expressions. […] In these graphs, the number of scratching events induced by administration of 10^−3 M (10 nmol/10 μl) SP or HK-1 alone is designated as a control, and is specifically designated as 100%.

[8] = test system: formalin-induced inflammatory pain; assay: Formalin-induced pain behavior (flinching) after intraplantar formalin; type: in vivo, rat; conditions: 10^−2 M (100 nmol/10 μl) peptide intrathecal 5 minutes before 2% formalin; for pain behavior (flinching events) during phase I: 0-10 minutes; for pain behavior (flinching events) during phase II: 10-60 minutes
Description: 10^−2 M (100 nmol/10 μl) nSP and nHK-1, or saline (10 μl) was administered to intrathecally catheterized rats via catheters, and then 5 minutes later, 50 μl of 2% formalin was administered subeutaneously to the hind paws of rats. The number of flinching events (pain behavior) was determined for a 60-minute period after formalin administration, so that the degree of pain was evaluated. During the 10-minute period after formalin administration (referred to as phase I), pain behavior was determined once every 2 minutes (1 minute per determination). During the period from 10 minutes to 60 minutes after formalin administration (referred to as phase 11), pain behavior was determined once every 5 minutes (1 minute per determination), so that the degree of pain was evaluated. During phase I, behavior (phasic pain) resulting from chemical stimulation accompanying formalin administration was observed. During phase II, […] following the phasic pain was observed.
The horizontal axis indicates time (minutes) after formalin administration and the vertical axis indicates the determined number of pain behavior events per minute.
4.5 mM (45 pmol/10 μl) GPR83 siRNA, 4.5 mM (45 pmol/10 μl) NK1R siRNA as target groups, 4.5 mM (45 pmol/10 μl) mismatch siRNA (MM siRNA: negative control), and 10 μl of HVJ-E (reagent for introduction of siRNA) were administered to intrathecally catheterized rats via catheters. On day 4 after administration, 50 μl of 2% formalin was administered subcutaneously to the hind paws of rats. The number of flinching events (pain behavior) was determined for a 60-minute period after formalin administration, so that the degree of pain was evaluated. During the 10-minute period after formalin administration (referred to as phase I), pain behavior was determined once every 2 minutes (1 minute per determination). During the period from 10 minutes to 60 minutes after formalin administration (referred to as phase II), pain behavior was determined once every 5 minutes (1 minute per determination), so that the degree of pain was evaluated. During phase I, behavior (phasic pain) resulting from chemical stimulation accompanying formalin administration was observed. During phase II, tonic pain following the phasic pain was observed.

[9] = test system: SP-induced scratching behavior; assay: SP-induced scratching behavior after intrathecal pre-administration of peptide or siRNA; type: in vivo, rat; conditions: 5 minutes before SP
[10] = biological target: NK1R (Homo sapiens, UniProt P25103); conditions: Non-patent Documents 4, 5, and 6; cited from earlier work
[11] = test system: 5-HT-induced itching; assay: Serotonin (5-HT)-induced itching behavior; type: in vivo, rat; conditions: for itching behavior resulting from 5-HT administration (scratching events, 20 minutes): 10^−2 M (100 nmol/10 μl) peptide intrathecal immediately before s.c. 5-HT, vs saline
Description: (§1) Immediately after intrathecal administration of 10^−2 M (100 nmol/10 μl) DTrp^2-nSP, DTrp^2-nHK-1, or saline (10 μl) to intrathecally catheterized rats via catheters, an itching inducer (10^−3 M histamine (0.25 mg/50 μl) or 1.13×10^−4 M 5-HT (0.25 mg/50 μl)) was subcutaneously administered to the nape of the neck, and then itching behavior was determined for 20 minutes, thereby evaluating the degree of itching.
(§2) FIG. 8 and FIG. 9 show itching behavior resulting from administration of histamine and 5-HT. The vertical axis indicates the determined number of scratching events for a 20-minute period after histamine and 5-HT administration. The horizontal axis indicates DTrp^2-nSP, DTrp^2-nHK-1, and saline administered.
(§3) 4.5 mM (45 pmol/10 μl) GPR83 siRNA, 4.5 mM (45 pmol/10 μl) NK1R siRNA as target groups, and 10 μl of HVJ-E (reagent for introduction of siRNA) were administered to intrathecally catheterized rats via catheters. On day 4 after administration, itching inducers (10^−3 M histamine (0.25 mg/50 μl) and 1.13×10^−4 M 5-HT (0.25 mg/50 μl)) were each subcutaneously administered to the nape of the neck, itching behavior was determined for a 20-minute period after administration, and thus the degree of itching was evaluated.
(§4) FIG. 15 and FIG. 16 show the results of observing itching behavior resulting from histamine administration and 5-HT administration. The vertical axis indicates the number of scratching events during a 20-minute period after administration of histamine and 5-HT, and the horizontal axis indicates HVJ-E (reagent for introduction of siRNA), GPR83 siRNA, and NK1R siRNA administered.

[12] = test system: histamine-induced itching; assay: Histamine-induced itching behavior; type: in vivo, rat; conditions: for itching behavior resulting from histamine administration (scratching events, 20 minutes): 10^−2 M (100 nmol/10 μl) peptide intrathecal immediately before s.c. histamine, vs saline
Description: as §1, §2, §3, §4

[13] = 10^−3 M (10 nmol/10 μl) peptide intrathecal, administration interval 5 minutes before 10^−3 M SP
[14] = 10^−3 M peptide intrathecal, administration interval 10 minutes
[15] = 10^−3 M peptide intrathecal, administration interval 15 minutes
[16] = assumed in view of Examples 1 to 5, not tested
[17] = 10^−3 M peptide intrathecal, administration interval 20 minutes
[18] = 10^−3 M peptide intrathecal, administration interval 30 minutes

Chain of NK1R (P25103 whole entry, species assumed): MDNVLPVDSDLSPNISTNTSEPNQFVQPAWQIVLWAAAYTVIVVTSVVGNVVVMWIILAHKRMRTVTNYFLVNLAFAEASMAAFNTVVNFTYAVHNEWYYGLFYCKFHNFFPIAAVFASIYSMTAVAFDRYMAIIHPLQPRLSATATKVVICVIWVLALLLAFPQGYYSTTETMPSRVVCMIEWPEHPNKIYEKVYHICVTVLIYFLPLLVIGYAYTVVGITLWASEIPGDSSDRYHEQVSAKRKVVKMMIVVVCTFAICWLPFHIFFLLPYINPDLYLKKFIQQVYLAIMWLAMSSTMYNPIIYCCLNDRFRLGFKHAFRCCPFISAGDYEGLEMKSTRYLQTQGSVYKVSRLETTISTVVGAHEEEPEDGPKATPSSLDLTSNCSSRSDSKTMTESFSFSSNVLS

Question: For `Ic1ccccc1CN[C@@H]1C2CCN(CC2)[C@@H]1C(c1ccccc1)c1ccccc1` (racemic) [L-703,606], which “suppression of HK-1-induced scratching behavior” value [1] is on record?
Answer: The value was “suppressed”.

Question: And the “suppression of SP-induced scratching behavior” value [2]?
Answer: Its value is “suppressed”.

Question: For “Arg-Pro-Lys-Pro-Gln-Gln-Phe-Phe-Gly-Leu-Met-NH2 (RPKPQQFFGLM-NH2; listed as Homo sapiens) [SP]”, which “induction of pain-related behavior (e.g., scratching behavior)” value [3] is on record?
Answer: The value was “induces pain-related behavior”.

Question: And the “induction of scratching behavior by intrathecal administration” value [4]?
Answer: The value was “induces scratching behavior”.

Question: And the “induction of thermal hyperalgesia” value [5]?
Answer: The value was “induces thermal hyperalgesia”.

Question: With “Arg-Pro-Lys-Pro-Gln-NH2 (RPKPQ-NH2) [nSP]” as the compound, how does the “suppression of the number of SP-induced scratching events” value [6, 13] read?
Answer: The value was “significantly suppress the number of scratching events; also recorded: an effect of suppressing the number of scratching events was exhibited significantly; also recorded: significant effects of suppressing SP-induced scratching behavior”.

Question: What about the “suppression of the number of SP-induced scratching events” value [6, 14] of the same compound?
Answer: Its value is “suppression effect was exhibited to a significant degree”.

Question: And the “suppression of the number of SP-induced scratching events” value [6, 15]?
Answer: The value was “suppression effect disappeared”.

Question: What about the “scratching behavior on administration of the peptide alone (number of scratching events during a 5-minute period)” value [7] of the same compound?
Answer: The value was “no scratching behavior”.

Question: What about the “pain behavior (flinching events) during phase I” value [8] of the same compound?
Answer: The value was “pain behavior decreased significantly”.

Question: And the “pain behavior (flinching events) during phase II” value [8]?
Answer: Its value is “pain behavior decreased significantly”.

Question: And the “suppression of scratching behavior resulting from SP administration” value ([9]; 10^−4 M (1 nmol/10 μl) peptide intrathecal)?
Answer: Its value is “suppressed scratching behavior resulting from SP administration”.

Question: What about the “suppression of scratching behavior resulting from SP administration” value ([9]; 10^−5 M (100 pmol/10 μl) peptide intrathecal) of the same compound?
Answer: Its value is “suppressed scratching behavior resulting from SP administration”.

Question: For “Arg-Ser-Arg-Thr-Arg-Gln-Phe-Tyr-Gly-Leu-Met-NH2 (RSRTRQFYGLM-NH2; listed as Homo sapiens) [HK-1]”, which “induction of scratching behavior by intrathecal administration” value [4] is on record?
Answer: Its value is “induces scratching behavior”.

Question: And the “affinity for NK1R” value [10]?
Answer: Its value is “high affinity”.

Question: What about the “induction of thermal hyperalgesia” value [5] of the same compound?
Answer: Its value is “no such reaction at all”.

Question: Which results are given for “Arg-Ser-Arg-Thr-Arg-NH2 (RSRTR-NH2) [nHK-1]”?
Answer: suppression of 5-HT-induced itching (assumed) [11, 16]: suppresses; suppression of the number of SP-induced scratching events [6, 13]: significantly suppress the number of scratching events; also recorded: an effect of significantly suppressing scratching behavior; also recorded: significant effects of suppressing SP-induced scratching behavior; suppression of the number of SP-induced scratching events [6, 14]: suppression effect was exhibited to a significant degree; suppression of the number of SP-induced scratching events [6, 15]: suppression effect disappeared; suppression of histamine-induced itching (assumed) [12, 16]: suppresses; scratching behavior on administration of the peptide alone (number of scratching events during a 5-minute period) [7]: no scratching behavior; pain behavior (flinching events) during phase I [8]: pain behavior decreased significantly; pain behavior (flinching events) during phase II [8]: pain behavior decreased significantly

Question: Which results are given for R[dW]KPQ-NH2 [DTrp^2-nSP]?
Answer: itching behavior resulting from 5-HT administration (scratching events, 20 minutes) [11]: no difference was found in the degree of itching behavior; suppression of the number of SP-induced scratching events [6, 13]: significantly suppress the number of scratching events; suppression of the number of SP-induced scratching events [6, 17]: suppression effect was significantly exhibited; also recorded: maintained significant suppression effects; suppression of the number of SP-induced scratching events [6, 18]: suppression effect disappeared; itching behavior resulting from histamine administration (scratching events, 20 minutes) [12]: no difference was found in itching behavior

Question: What does the source list for R[dW]RTR-NH2 [DTrp^2-nHK-1]?
Answer: itching behavior resulting from 5-HT administration (scratching events, 20 minutes) [11]: significantly lowered the degree of itching behavior; suppression of the number of SP-induced scratching events [6, 13]: significantly suppress the number of scratching events; suppression of the number of SP-induced scratching events [6, 17]: suppression effect was significantly exhibited; also recorded: maintained significant suppression effects; suppression of the number of SP-induced scratching events [6, 18]: suppression effect disappeared; itching behavior resulting from histamine administration (scratching events, 20 minutes) [12]: significantly lowered itching events
